Experimental data reported in publication PMC12655637, “Design, Synthesis, and Mechanistic Study of Novel Ciprofloxacin/Thiazole Chalcone Hybrids as Potential Anticancer Agents” (Pharmaceuticals, 2025).
Values joined by “and” are separate entries in the source; they are usually repeats but may differ in a detail not shown here. Identical values can stand only once.

Experiments:
[1] = system: Non-Small-Cell Lung Cancer cell lines; assay: NCI five-dose testing, subpanel (MID b, selectivity); conditions: for SI: full-panel MG-MID / subpanel MG-MID, Non-Small-Cell Lung Cancer; for MG-MID: mean activity across subpanel Non-Small-Cell Lung Cancer
Description: (§1) The log10 GI50, log10 TGI, and log10 LC50 values were subsequently calculated as the averages of the log10 values of the respective individual GI50, TGI, and LC50 measurements. Negative numbers signified the most sensitive cell lines.
(§2) One way to measure a compound’s selectivity is to divide its subpanel MID^b (in μM) by the MID^a (in μM), which is the average sensitivity of all cell lines to the test agent.
(§3) At the National Cancer Institute (NCI) in Bethesda, USA, researchers examined the anticancer potential of the target compounds under investigation using nine panels of sixty different cell lines obtained from nine different cancers that were housed in the NCI library. […] The anticancer screening was carried out at a single dose of 10^−5 M; the results obtained were expressed as growth inhibition (%).
(§4) The anti-cancer potential of the tested compounds was evaluated at the National cancer institute (NCI), Bethesda, USA, against 9 panels of 60 various cell lines derived from nine human tumours available usually at NCI library. […] The anticancer screening was carried out at single dose of 10^-5 M. The results obtained as growth inhibition (%).
(§5) Cell lines were grown in Roswell Park Memorial Institute medium (RPMI) with 5% fetal bovine serum and 2% μM L-glutamine. Cancer cells are inoculated into 96 well microtiter plates in 100 μL at plating densities ranging from 5000 to 40,000 cells/well depending on the doubling time of individual cell lines. Then microtiter plates are incubated at 37 °C, 5% CO2, 95% air and 100% relative humidity for 24 h prior to the addition of the tested compounds. After 24 h, two plates of each cell line are fixed in situ with trichloroacetic acid (TCA). The tested compounds were dissolved in dimethyl sulfoxide (DMSO) and stored in the freezer prior to use. An aliquot of frozen drug concentrate is diluted to the desired concentration with complete medium containing 50 μg/mL gentamicin.
(§6) compounds were added to the microtiter plates followed by incubation for further 48 h at 37 °C, 5% CO2, 95% air and 100% relative humidity. Fixation of cancer cell lines is carried out through gentle addition of 50 μL of cold 50 %w/v TCA (final concentration, 10% TCA) then incubated for 60 min. at 4 °C. The plates are washed five times with tap water after getting rid of the supernatant and allowed to dry in air. Sulforhodamine B (SRB) solution (100 μL) at 0.4% w/v in 1% acetic

Melanoma cell lines = assay: as above; conditions: for SI: full-panel MG-MID / subpanel MG-MID, Melanoma; for MG-MID: mean activity across subpanel Melanoma
Description: as §1, §2, §3, §4, §5, §6

CNS Cancer cell lines = assay: as above; conditions: for SI: full-panel MG-MID / subpanel MG-MID, CNS Cancer; for MG-MID: mean activity across subpanel CNS Cancer
Description: as §1, §2, §3, §4, §5, §6

colon HCT116 cells = assay: Annexin V-FITC/PI apoptosis and necrosis assay; type: cell-based, human; conditions: HCT116 treated with IC50 concentration; for Apoptosis Late: DMSO 0.15%; for Apoptosis Early: DMSO 0.39%; for Apoptosis Total: DMSO 0.54%; for Necrosis: DMSO 1.83%
[2] = system: Leukemia cancer cell lines; assay: NCI five-dose testing, subpanel (GI50 range, MID b, selectivity); conditions: for GI50: Homo sapiens; for SI: full-panel MG-MID / subpanel MG-MID, Leukemia; for MG-MID: mean activity across subpanel Leukemia
Description: as §1, §2, §3, §4, §5, §6

Breast Cancer cell lines = assay: NCI five-dose testing, subpanel (MID b, selectivity); conditions: for SI: full-panel MG-MID / subpanel MG-MID, Breast Cancer; for MG-MID: mean activity across subpanel Breast Cancer
Description: as §1, §2
(§7) At the National Cancer Institute (NCI) in Bethesda, USA, researchers examined the anticancer potential of the target compounds under investigation using nine panels of sixty different cell lines obtained from nine different cancers that were housed in the NCI library. Following the protocols laid out by the National Cancer Institute (https://dctd.cancer.gov/data-tools-biospecimens/data (accessed on 15 March 2023 and 6 January 2024)), the screening procedures were carried out [37]. The anticancer screening was carried out at a single dose of 10^−5 M; the results obtained were expressed as growth inhibition (%).
(§8) The anti-cancer potential of the tested compounds was evaluated at the National cancer institute (NCI), Bethesda, USA, against 9 panels of 60 various cell lines derived from nine human tumours available usually at NCI library. The procedures for the screening were described in details in NCI website (dttp://www.dtp.nci.nih.gov.) and were done according to NCI protocols. The anticancer screening was carried out at single dose of 10^-5 M. The results obtained as growth inhibition (%).
as §5, §6

Renal Cancer cell lines = assay: as above; conditions: full-panel MG-MID / subpanel MG-MID
Description: as §1, §2, §7
The anti-cancer potential of the tested compounds was evaluated at the National cancer institute (NCI), Bethesda, USA, against 9 panels of 60 various cell lines derived from nine human tumours available usually at NCI library. The procedures for the screening were described in details in NCI website (dttp://www.dtp.nci.nih.gov.) and were done according to NCI protocols. […]

Topoisomerase I = target: T1, Topoisomerase I (Homo sapiens, UniProt P11387); assay: Topoisomerase I inhibition assay (ELISA kit of human DNA topoisomerase); conditions: for TOPO I fld (fold of control): HCT116, control = 1; for Topoisomerase I % Inhibition: in comparison to negative control
T1 sequence (P11387 1-765): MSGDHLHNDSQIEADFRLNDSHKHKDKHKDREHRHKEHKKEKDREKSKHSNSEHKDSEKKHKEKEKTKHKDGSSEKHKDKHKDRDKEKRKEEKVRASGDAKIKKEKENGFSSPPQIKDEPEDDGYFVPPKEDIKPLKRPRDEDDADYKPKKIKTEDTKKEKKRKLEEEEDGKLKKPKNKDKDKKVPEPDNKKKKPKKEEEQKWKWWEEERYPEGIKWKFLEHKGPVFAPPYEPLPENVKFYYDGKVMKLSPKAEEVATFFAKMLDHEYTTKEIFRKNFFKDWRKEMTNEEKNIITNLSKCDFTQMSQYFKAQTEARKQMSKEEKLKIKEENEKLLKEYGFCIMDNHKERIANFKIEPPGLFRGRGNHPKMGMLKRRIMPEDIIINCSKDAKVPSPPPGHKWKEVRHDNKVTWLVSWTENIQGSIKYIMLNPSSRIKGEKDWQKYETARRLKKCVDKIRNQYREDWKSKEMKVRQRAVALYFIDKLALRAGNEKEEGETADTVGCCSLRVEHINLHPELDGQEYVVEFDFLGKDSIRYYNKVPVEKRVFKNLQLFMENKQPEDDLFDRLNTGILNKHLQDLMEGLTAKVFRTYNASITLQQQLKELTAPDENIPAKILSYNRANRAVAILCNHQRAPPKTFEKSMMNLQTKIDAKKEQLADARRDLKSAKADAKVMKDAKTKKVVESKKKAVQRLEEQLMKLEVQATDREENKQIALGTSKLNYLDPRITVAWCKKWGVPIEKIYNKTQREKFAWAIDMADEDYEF
Description: The assay was performed using a commercially available Topoisomerase I Drug Screening Kit (TopoGen, Inc., Cat. # TG1015-1, Buena Vista, CO, USA) according to the manufacturer’s instructions, with minor modifications.
Evaluation of Topoisomerase I/II inhibition
Two folds of serial dilution was accomplished after standards and the tested compounds were dissolved in sample diluent.
Horseradish peroxidase (HRP-avidin) and biotin-conjugated antibody were diluted 10 times each.
Each well received 100 μL of each concentration of the standard or test chemicals, which were then added and incubated at 37 °C for 60 min. After each well's liquid had been carefully removed,
incubated for 1 h at 37 °C. The microtiter plate was rinsed three times and given room to aspirate.
After that, the plate was incubated at 37 °C for 60 min with 100 μL of HRP-avidin solution added to each well. After that, the plate was aspirated and cleaned 5 times. Each well received 90 μL of TMB substrate, and the plate was incubated for 30 min. at 37 °C in a light-protected environment.
Finally, stop solution (50 μL) was loaded, and within 5 minutes, the absorbance at 450 nm was measured spectrophotometrically.

[3] = system: colon HCT116 cancer cell line; assay: Cell cycle analysis, propidium iodide flow cytometry; conditions: for Cell cycle arrest phase: HCT116; for DNA Content G2/M Phase / DNA Content S Phase / DNA Content G0-G1 Phase: HCT116 treated with IC50 concentration; for DNA Content G2/M Phase: DMSO 8.68%; for DNA Content S Phase: DMSO 27.03%; for DNA Content G0-G1 Phase: DMSO 64.29%
Description: The effect of compounds 4b and 4d on the cell cycle progression of the colon HCT-116 cell line was evaluated using a Propidium Iodide Flow Cytometry Kit to measure the DNA content, as per the reported protocols [39].
Cell cycle analysis and measurement of apoptotic potential
The effect of compound 4b and 4d on cell cycle progression of colon HCT-116 cell line was evaluated using Propidium Iodide Flow Cytometry Kit to measure the DNA content according to the reported protocols. The HCT116 cells used in this work were obtained from the American Type Culture Collection. Cells were cultured in DMEM (Invitrogen/Life Technologies) supplemented with 10% FBS (Hyclone), 10 µg/ml insulin (Sigma), and 1% penicillin-streptomycin. The remaining chemicals and reagents were all from Sigma or Invitrogen. Growth media was removed, cells washed with warm PBS and aspirated. Adhered cells were detached from media by addition of 5 ml 10% trypsin/EDTA and incubated 2 minutes in the incubator. The suspended cells harvested, aspirated to a falcon tube, centrifuged at 2000 rpm for 5 minutes. Cell count performed after suspending the cells into a fresh media and stained with trypan blue, counted and used for preparation of the appropriate number of cells.

UO-31 = assay: NCI-60 screening, five-dose, SRB; type: cell-based, human; conditions: for GI50 / IC50 / LC50 (concentration killing 50% of cells): Homo sapiens
[4] = system: leukemia HL-60, RPMI-8226, and colon HCT-116 cells; assay: Antiproliferative activity, IC50 range over three cell lines; type: cell-based; conditions: Homo sapiens; range over HL-60, RPMI-8226 and HCT-116
Colon Cancer cell lines = assay: NCI five-dose testing, subpanel (GI50 range, MID b, selectivity); conditions: for GI50: Homo sapiens; for SI: full-panel MG-MID / subpanel MG-MID, Colon Cancer; for MG-MID: mean activity across subpanel Colon Cancer
Description: as §1, §2, §3, §4, §5, §6

[5] = system: Prostate Cancer cell lines; assay: NCI five-dose testing, subpanel (MID b, selectivity); conditions: for SI: full-panel MG-MID / subpanel MG-MID, PC (prostate); for MG-MID: mean activity across subpanel PC (prostate)
Description: as §1, §2, §7, §8, §5, §6

topoisomerase IIβ = topoisomerase IIβ (Homo sapiens, UniProt Q02880); assay: Topoisomerase II inhibition assay (ELISA kit of human DNA topoisomerase); conditions: for TOPO II fld (fold of control): HCT116, control = 1; for Topoisomerase II % Inhibition: in comparison to negative control
Sequence of topoisomerase IIβ (Q02880 2-1626): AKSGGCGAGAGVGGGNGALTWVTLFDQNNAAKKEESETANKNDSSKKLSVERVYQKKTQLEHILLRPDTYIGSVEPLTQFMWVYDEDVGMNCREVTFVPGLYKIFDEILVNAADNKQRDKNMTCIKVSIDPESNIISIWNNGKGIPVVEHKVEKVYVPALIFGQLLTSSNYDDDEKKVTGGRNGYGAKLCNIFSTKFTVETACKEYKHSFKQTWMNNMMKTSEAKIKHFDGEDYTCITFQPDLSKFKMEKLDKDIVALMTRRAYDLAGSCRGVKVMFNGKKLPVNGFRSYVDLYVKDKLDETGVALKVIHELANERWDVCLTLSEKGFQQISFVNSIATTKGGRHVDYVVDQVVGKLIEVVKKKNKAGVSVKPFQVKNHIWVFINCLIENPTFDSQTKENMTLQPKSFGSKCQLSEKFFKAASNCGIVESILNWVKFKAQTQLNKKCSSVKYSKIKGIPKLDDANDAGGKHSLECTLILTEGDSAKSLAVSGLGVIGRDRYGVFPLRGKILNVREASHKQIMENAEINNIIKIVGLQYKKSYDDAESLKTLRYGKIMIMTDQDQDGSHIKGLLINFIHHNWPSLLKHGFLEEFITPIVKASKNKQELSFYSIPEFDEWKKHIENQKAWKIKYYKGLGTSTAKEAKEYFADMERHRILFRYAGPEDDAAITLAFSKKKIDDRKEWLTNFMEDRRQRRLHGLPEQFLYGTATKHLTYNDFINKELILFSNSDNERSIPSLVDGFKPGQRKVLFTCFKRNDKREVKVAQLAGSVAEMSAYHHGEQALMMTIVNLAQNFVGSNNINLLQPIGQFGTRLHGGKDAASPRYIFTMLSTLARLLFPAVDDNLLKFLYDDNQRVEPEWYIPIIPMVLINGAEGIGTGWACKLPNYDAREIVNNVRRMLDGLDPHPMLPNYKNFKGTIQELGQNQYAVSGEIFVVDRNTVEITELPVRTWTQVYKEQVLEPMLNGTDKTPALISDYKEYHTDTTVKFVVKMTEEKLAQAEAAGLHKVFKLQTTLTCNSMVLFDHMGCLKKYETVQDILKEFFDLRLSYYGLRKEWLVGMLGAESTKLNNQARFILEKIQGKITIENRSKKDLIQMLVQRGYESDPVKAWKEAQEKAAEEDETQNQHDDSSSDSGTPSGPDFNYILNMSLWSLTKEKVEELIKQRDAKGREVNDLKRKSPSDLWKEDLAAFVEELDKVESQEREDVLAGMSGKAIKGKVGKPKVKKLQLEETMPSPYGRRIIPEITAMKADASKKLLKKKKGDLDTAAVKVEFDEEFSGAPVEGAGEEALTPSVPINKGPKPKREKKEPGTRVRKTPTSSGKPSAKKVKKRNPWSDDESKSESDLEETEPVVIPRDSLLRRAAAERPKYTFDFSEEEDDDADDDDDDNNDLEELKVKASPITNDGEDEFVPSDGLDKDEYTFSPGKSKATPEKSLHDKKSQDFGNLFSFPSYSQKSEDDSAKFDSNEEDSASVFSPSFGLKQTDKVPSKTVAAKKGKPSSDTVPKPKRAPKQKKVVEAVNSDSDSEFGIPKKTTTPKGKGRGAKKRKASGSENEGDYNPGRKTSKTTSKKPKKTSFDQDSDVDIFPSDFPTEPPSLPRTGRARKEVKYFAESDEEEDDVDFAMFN

[6] = system: Ovarian Cancer cell lines; assay: NCI five-dose testing, subpanel (MID b, selectivity); conditions: for SI: full-panel MG-MID / subpanel MG-MID, Ovarian Cancer; for MG-MID: mean activity across subpanel Ovarian Cancer
Description: as §1, §2, §7, §8, §5, §6

[7] = In vitro cytotoxicity against normal cell line WI 38; type: cell-based; conditions: human, WI-38 normal cell line; for viability at 0.4 µM: WI38, 0.4uM; for viability at 1.6 µM: WI38, 1.6uM; for viability at 6.3 µM: WI38, 6.3uM; for viability at 25 µM: WI38, 25uM; for viability at 100 µM: WI38, 100uM; for IC50: ± SEM
Description: Detailed results of cytotoxicity of compounds 4b and 4d against normal cell
Blank CC Sample No. 4b/WI38 sample no. 4d/WI38
conc. viability conc. viability

Bax = assay: Relative gene expression by qRT-PCR in HCT-116; type: cell-based, human; conditions: HCT116; untreated control = 1
caspase-3 = assay: Relative gene expression by qRT-PCR in HCT-116; type: cell-based, human; conditions: HCT116; untreated control = 1
caspase-9 = assay: Relative gene expression by qRT-PCR in HCT-116; type: cell-based, human; conditions: HCT116; untreated control = 1

Compound `Cc1nc(SCC(=O)N2CCN(c3cc4c(cc3F)c(=O)c(C(=O)O)cn4C3CC3)CC2)sc1C(=O)/C=C/c1cccc(Cl)c1` [Compound 4b, (E)-7-(4-(2-((5-(3-(3-Chlorophenyl)acryloyl)-4-methylthiazol-2-yl)thio)acetyl)piperazin-1-yl)-1-cyclopropyl-6-fluoro-4-oxo-1,4-dihydroquinoline-3-carboxylic Acid] has an SI [1] of 0.73, an MG-MID [1] of 96.35 µM and an SI (Melanoma cell lines) of 0.95. It also gave an MG-MID (Melanoma cell lines) of 74.08 µM, an SI (CNS Cancer cell lines) of 1.01 and an MG-MID (CNS Cancer cell lines) of 69.63 µM. The “Apoptosis Late” value (colon HCT116 cells) was 22.37%, the “Apoptosis Early” value (colon HCT116 cells) was 6.96% and the “Apoptosis Total” value (colon HCT116 cells) was 29.33%. The Necrosis (colon HCT116 cells) was 3.66%, the GI50 [2] was 0.2 to 12.9 µM and the SI [2] was 9.22. The MG-MID [2] was 7.62 µM, the SI (Breast Cancer cell lines) was 1.04 and the MG-MID (Breast Cancer cell lines) was 67.8 µM. For the same compound, the SI (Renal Cancer cell lines) was 1.5, the “TOPO I fld (fold of control)” value (Topoisomerase I) was 0.227 and the “Topoisomerase I % Inhibition” value (Topoisomerase I) was 77.3%. The “Cell cycle arrest phase” value [3] was “G1 phase”, the “DNA Content G2/M Phase” value [3] was 2.92% and the “DNA Content S Phase” value [3] was 23.23%. For the same compound, the “DNA Content G0-G1 Phase” value [3] was 73.85%, the TGI (UO-31) was 100.0 µM and the GI50 (UO-31) was greater than 100 µM. For the same compound, the IC50 (UO-31) was greater than 100 µM, the LC50 (concentration killing 50% of cells) (UO-31) was greater than 100 µM and the IC50 [4] was 0.3 to 3.7 µM. The GI50 (Colon Cancer cell lines) was 0.3 to 15.1 µM, the SI (Colon Cancer cell lines) was 2.18 and the MG-MID (Colon Cancer cell lines) was 32.16 µM. The SI [5] was 0.70, the MG-MID [5] was 100.0 µM and the “TOPO II fld (fold of control)” value (topoisomerase IIβ) was 0.266. For the same compound, the “Topoisomerase II % Inhibition” value (topoisomerase IIβ) was 73.4%, the SI [6] was 0.77 and the MG-MID [6] was 91.67 µM. For the same compound, the viability at 0.4 µM [7] was 82.8%, the viability at 1.6 µM [7] was 71.8% and the viability at 6.3 µM [7] was 63.5%. The viability at 25 µM [7] was 52.9%, the viability at 100 µM [7] was 37.1% and the IC50 [7] was 26.8 ± 0.92 µM.
For `Cc1nc(SCC(=O)N2CCN(c3cc4c(cc3F)c(=O)c(C(=O)O)cn4C3CC3)CC2)sc1C(=O)/C=C/c1cccc(F)c1` [Compound 4d, (E)-1-Cyclopropyl-6-fluoro-7-(4-(2-((5-(3-(3-fluorophenyl)acryloyl)-4-methylthiazol-2-yl)thio)acetyl)piperazin-1-yl)-4-oxo-1,4-dihydroquinoline-3-carboxylic Acid], the SI [1] was 0.81, the MG-MID [1] was 86.5 µM and the SI (Melanoma cell lines) was 0.89. It also gave an MG-MID (Melanoma cell lines) of 79.00 µM, an SI (CNS Cancer cell lines) of 0.97 and an MG-MID (CNS Cancer cell lines) of 72.0 µM. For the same compound, the “Relative gene expression of Bax” value (Bax) was 5.58 fold and 5.577 fold, the “Apoptosis Late” value (colon HCT116 cells) was 26.29% and the “Apoptosis Early” value (colon HCT116 cells) was 11.92%. For the same compound, the “Apoptosis Total” value (colon HCT116 cells) was 38.21%, the Necrosis (colon HCT116 cells) was 3.82% and the GI50 [2] was 0.19 to 3.39 µM. It also gave an SI [2] of 24.6, an MG-MID [2] of 2.9 µM and an SI (Breast Cancer cell lines) of 0.99. The MG-MID (Breast Cancer cell lines) was 71.1 µM, the SI (Renal Cancer cell lines) was 1.5 and the “TOPO I fld (fold of control)” value (Topoisomerase I) was 0.277. The “Topoisomerase I % Inhibition” value (Topoisomerase I) was 72.3%, the “Relative gene expression of caspase-3” value (caspase-3) was 10.86 fold and the “Cell cycle arrest phase” value [3] was “G1 phase”. The “DNA Content G2/M Phase” value [3] was 3.75%, the “DNA Content S Phase” value [3] was 18.33% and the “DNA Content G0-G1 Phase” value [3] was 77.92%. The “Relative gene expression of caspase-9” value (caspase-9) was 4.2 fold and 4.214 fold, the TGI (UO-31) was 100.0 µM and the GI50 (UO-31) was greater than 100 µM. The IC50 (UO-31) was greater than 100 µM, the LC50 (concentration killing 50% of cells) (UO-31) was greater than 100 µM and the IC50 [4] was 0.3 to 3.7 µM. For the same compound, the GI50 (Colon Cancer cell lines) was 0.52 to 4.9 µM, the SI (Colon Cancer cell lines) was 2.8 and the MG-MID (Colon Cancer cell lines) was 25.3 µM. The SI [5] was 0.70, the MG-MID [5] was 100.0 µM and the “TOPO II fld (fold of control)” value (topoisomerase IIβ) was 0.481. The “Topoisomerase II % Inhibition” value (topoisomerase IIβ) was 51.9%, the SI [6] was 0.70 and the MG-MID [6] was 100 µM. The viability at 0.4 µM [7] was 83.4%, the viability at 1.6 µM [7] was 72.8% and the viability at 6.3 µM [7] was 64.1%. It also gave a viability at 25 µM [7] of 52.9%, a viability at 100 µM [7] of 44% and an IC50 [7] of 41.2 ± 1.42 µM.
